Publication PMC4270767 (PLoS ONE, 2014)
Several values for one entry are separate records, joined by “and”; a condition that tells them apart may be missing. Equal values may be shown once. Where a name gives a salt, the structure may show the parent alone. Read-outs that look alike come from different tables or passages of the source.

Tests used:
[1] = target: PSP domain of MtSerB2 (PSPD) (Mycobacterium tuberculosis, UniProt O53289); assay: biochemical; set-up: species or system M. tuberculosis
Chain of PSP domain of MtSerB2 (PSPD) (O53289 165-409 limits assumed): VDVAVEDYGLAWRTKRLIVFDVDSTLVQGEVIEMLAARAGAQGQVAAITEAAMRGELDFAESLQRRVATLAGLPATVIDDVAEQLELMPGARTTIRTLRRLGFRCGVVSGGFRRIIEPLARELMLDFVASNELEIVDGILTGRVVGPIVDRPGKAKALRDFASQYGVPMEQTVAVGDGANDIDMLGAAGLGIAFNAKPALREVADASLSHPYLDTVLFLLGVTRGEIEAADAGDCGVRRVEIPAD

MtSerB2 [2] = target: T1, MtSerB2 (Mycobacterium tuberculosis, UniProt O53289); assay: Inhibition of MtSerB2 hydrolysis of L-phosphoserine (malachite green); assay type: biochemical, M. tuberculosis
T1 sequence (O53289 whole entry): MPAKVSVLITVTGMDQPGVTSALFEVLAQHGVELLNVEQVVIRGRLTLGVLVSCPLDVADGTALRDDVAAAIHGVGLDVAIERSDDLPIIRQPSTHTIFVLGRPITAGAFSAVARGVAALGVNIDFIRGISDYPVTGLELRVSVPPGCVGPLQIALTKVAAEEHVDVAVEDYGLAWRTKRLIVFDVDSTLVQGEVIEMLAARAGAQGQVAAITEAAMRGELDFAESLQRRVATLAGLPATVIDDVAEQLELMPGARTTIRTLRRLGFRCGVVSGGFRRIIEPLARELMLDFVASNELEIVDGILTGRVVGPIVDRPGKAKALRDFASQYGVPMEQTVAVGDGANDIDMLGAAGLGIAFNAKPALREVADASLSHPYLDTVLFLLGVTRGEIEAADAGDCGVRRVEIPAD

MtSerB2 [3] = target: T1, MtSerB2; assay: Effects of added amino acids on MtSerB2 phosphatase activity; assay type: biochemical, M. tuberculosis; conditions: for % activation or IC50: amino acids without effect
MtSerB2 [4] = target: T1, MtSerB2; assay type: biochemical, M. tuberculosis; conditions: for effect of divalent cation on MtSerB2 activity: relative to Mg^2+
MtSerB2 [5] = target: T1, MtSerB2; conditions: Superdex S200, samples pre-equilibrated 1 h

## NC(CP(=O)(O)O)C(=O)O (racemic) [D,L- AP3, DL-2-Amino-3-Phosphonopropionic Acid]
[1]
  Imax (%) PSPD: 19%
MtSerB2 [2]
  Imax (%) SerB2: 22%

## C[C@H](N)C(=O)O [Ala]
MtSerB2 [3]
  Activation factor: Inhibition
  IC50: 3830 ± 234 µM

## N=C(N)NCCC[C@H](N)C(=O)O [Arg]
MtSerB2 [3]
  Activation factor: Inhibition
  IC50: 632 ± 14 µM

## NC(=O)C[C@H](N)C(=O)O [Asn]
MtSerB2 [3]
  Activation factor: Non modulator
  % activation or IC50: No Change

## N[C@@H](CC(=O)O)C(=O)O [Asp]
MtSerB2 [3]
  Activation factor: Inhibitor
  IC50: 1620 ± 84 µM

## [Ca+2].[Cl-].[Cl-] [Ca^2+]
MtSerB2 [4]
  effect of divalent cation on MtSerB2 activity: deactivates

## CN(C)CCCN1c2ccccc2Sc2ccc(Cl)cc21 [Chlorpromazine, Chlorpromazine Hydrochloride]
[1]
  Imax (%) PSPD: 95%
[1]; IC50 (µM) PSPD
  IC50: ~6.25 µM and 6.25 µM
MtSerB2 [2]
  Imax (%) SerB2: 70%
  Inhibition of phosphatase activity: inhibition at nanomolar concentrations
  type of inhibition: non-competitive
MtSerB2 [2]; read-out: IC50 (µM) SerB2
  IC50: 0.92 ± 0.1 µM

## [Co+2] [Co^2+]
MtSerB2 [4]
  effect of divalent cation on MtSerB2 activity: deactivates

## N[C@@H](CS)C(=O)O [Cys]
MtSerB2 [3]
  Activation factor: Non Modulator
  % activation or IC50: No Change

## O=C(O)CN(CCN(CC(=O)O)CC(=O)O)CC(=O)O [EDTA]
MtSerB2 [2]
  Inhibition of phosphatase activity: decrease of enzyme activity

## NC(=O)CC[C@H](N)C(=O)O [Gln]
MtSerB2 [3]
  Activation factor: Inhibition
  IC50: 432 ± 13 µM

## N[C@@H](CCC(=O)O)C(=O)O [Glu]
MtSerB2 [3]
  Activation factor: Inhibition
  IC50: 363 ± 20 µM

## NCC(=O)O [Gly]
MtSerB2 [3]
  Activation factor: Inhibition
  IC50: 381 ± 15 µM

## N[C@@H](Cc1c[nH]cn1)C(=O)O [His]
MtSerB2 [3]
  Activation factor: Inhibition
  IC50: 4860 ± 218 µM

## CC[C@H](C)[C@H](N)C(=O)O [Ile]
MtSerB2 [3]
  Activation factor: Non modulator
  % activation or IC50: No Change

## N[C@@H](CP(=O)(O)O)C(=O)O [L- AP3, L-2-amino-3-phosphonopropionate]
[1]
  Imax (%) PSPD: 21%
MtSerB2 [2]
  Imax (%) SerB2: 23%

## N[C@@H](CO)C(=O)O [L-serine]
[1]
  Imax (%) PSPD: 70%
[1]; IC50 (µM) PSPD
  IC50: 824 ± 39 µM
MtSerB2 [3]
  Activation factor: Inhibition
MtSerB2 [2]
  IC50: 0.78 ± 0.08 µM
  Imax (%) SerB2: 65%
MtSerB2 [5]
  molar ratio of L-serine and MtSerB2 at shift of dimer to tetramer (higher order oligomer): ~0.8

## CC(C)C[C@H](N)C(=O)O [Leu]
MtSerB2 [3]
  Activation factor: Non modulator
  % activation or IC50: No Change

## NCCCC[C@H](N)C(=O)O [Lys]
MtSerB2 [3]
  % activation: 40%
  Activation factor: Activation

## CSCC[C@H](N)C(=O)O [Met]
MtSerB2 [3]
  Activation factor: Non modulator
  % activation or IC50: No Change

## [Mn+2] [Mn^2+]
MtSerB2 [4]
  effect of divalent cation on MtSerB2 activity: deactivates

## [F-].[Na+] [NaF, Sodium fluoride]
[1]
  Imax (%) PSPD: 72%
[1]; read-out: IC50 (µM) PSPD
  IC50: 2780 ± 216 µM
MtSerB2 [2]
  Imax (%) SerB2: 55%
  Inhibition of phosphatase activity: decrease of enzyme activity
MtSerB2 [2]; read-out: IC50
  IC50: ~3000 µM
MtSerB2 [2]; read-out: IC50 (µM) SerB2
  IC50: 3110 ± 155 µM

## [Ni+2] [Ni^2+]
MtSerB2 [4]
  effect of divalent cation on MtSerB2 activity: deactivates

## C=C1[C@@H](O)[C@@H]2O[C@]3(CC[C@H](/C=C/[C@@H](C)[C@@H]4CC(C)=C[C@@]5(O[C@H](C[C@@](C)(O)C(=O)O)CC[C@H]5O)O4)O3)CC[C@H]2O[C@@H]1[C@@H](O)C[C@H](C)[C@H]1O[C@@]2(CCCCO2)CC[C@H]1C [Okadaic acid]
[1]
  Imax (%) PSPD: 22%
MtSerB2 [2]
  Imax (%) SerB2: 14%
  Inhibition of phosphatase activity: not able to inhibit the phosphatase activity

## N[C@@H](Cc1ccccc1)C(=O)O [Phe]
MtSerB2 [3]
  Activation factor: Activation

## C[N+](C)(C)CCOP(=O)(O)O [Phosphorylcholine]
[1]
  Imax (%) PSPD: 14%
MtSerB2 [2]
  Imax (%) SerB2: 10%

## O=C(O)[C@@H]1CCCN1 [Pro]
MtSerB2 [3]
  Activation factor: Inhibition
  IC50: > 5000 µM

## C[C@@H](O)[C@H](N)C(=O)O [Thr]
MtSerB2 [3]
  Activation factor: Inhibition
  IC50: 3460 ± 206 µM

## N[C@@H](Cc1c[nH]c2ccccc12)C(=O)O [Trp]
MtSerB2 [3]
  Activation factor: Inhibition
  IC50: 322 ± 23 µM

## N[C@@H](Cc1ccc(O)cc1)C(=O)O [Tyr]
MtSerB2 [3]
  Activation factor: Activation

## CC(C)[C@H](N)C(=O)O [Val]
MtSerB2 [3]
  Activation factor: Inhibition
  IC50: 3660 ± 212 µM

## [Zn+2] [Zn^2+]
MtSerB2 [4]
  concentration level of inhibition: inhibits the activity at nanomolar levels
  effect of divalent cation on MtSerB2 activity: deactivates

## C[N+](C)(C)CCOP(=O)([O-])OCC(O)CO (stereo not drawn) [α-GPC, α-Glycerophosphorylcholine]
[1]
  Imax (%) PSPD: 31%
MtSerB2 [2]
  Imax (%) SerB2: 35%

## Sodium Vanadate
[1]
  Imax (%) PSPD: 93%
MtSerB2 [2]
  Imax (%) SerB2: 88%
